Assay results as given in ChEMBL document CHEMBL3399939, “Synthetic studies of five-membered heteroaromatic derivatives as potassium-competitive acid blockers (P-CABs)” (Bioorg Med Chem Lett, 2015).

Columns and labels:
[1] = Lipophilicity, log D of the compound; format: physicochemical; conditions: octanol/water
[2] = Inhibition of K+-stimulated H(+)/K(+) ATPase in porcine gastric mucosal microsomal fraction assessed as reduction in inorganic phosphate release incubated at 37 degC for 30 mins in presence of ATP by malachine green dye based colorimetry; format: microsomes, Sus scrofa, Gastric mucosa
Sus scrofa = organism: Sus scrofa; test: Inhibition of K+-stimulated H(+)/K(+) ATPase in porcine gastric mucosal microsomal fraction assessed as reduction in inorganic phosphate release at 10 uM incubated at 37 degC for 30 mins in presence of ATP by malachine green dye based colorimetry; format: microsomes; conditions: Gastric mucosa

SMILES | logD [1] | IC50 [2] [nM] | inhibition (Sus scrofa) [%]
CNCc1cc(S(=O)(=O)c2ccccc2)n(-c2ccccc2)c1 | 0.4 | 130 | 
CNCc1cc(-c2ccccc2)c(S(=O)(=O)c2ccccc2)s1 | 2.1 | 52 | 
CNCc1cc(S(=O)(=O)c2ccccc2)c(-c2ccccc2)o1 | 1.8 | 1000 | 
CNCc1nc(-c2ccccc2)c(S(=O)(=O)c2ccccc2)s1 | 2.1 | 170 | 
CNCc1cc(S(=O)(=O)c2ccccc2)c(-c2ccccc2)s1 | 1.9 | 150 | 
CCNc1nc(-c2ccccc2)c(S(=O)(=O)c2ccccc2)s1 |  |  | 6.9
CNCc1cc(-c2ccccc2)c(S(=O)(=O)c2ccc(C)cc2)o1 |  |  | 33.2
CNCc1cn(S(=O)(=O)c2ccc(C)cc2)c(-c2ccccc2)n1 | 0 | 99 | 
CNc1nc(-c2ccccc2)c(S(=O)(=O)c2ccccc2)s1 |  |  | 3.6
CNCc1nc(S(=O)(=O)c2ccccc2)c(-c2ccccc2)s1 |  |  | 2
CNCc1cc(S(=O)(=O)c2ccccc2)c(-c2ccccc2)[nH]1 |  |  | 19.8
CNCc1cc(S(=O)(=O)c2ccccc2)n(-c2ccccc2)n1 | 1.1 | 68 | 
